According to patent publication US20040029871A1, “Pharmaceutical compounds for treating copd” (priority 2000, published 2004):
Like-named read-outs stand apart in the source and are kept apart here.

Legend:
human MPO = target: T1, human MPO (Homo sapiens, UniProt P05164); experiment: in vitro MPO assay measuring production of hypochlorus acid (HOCl); format: biochemical; conditions: for Inhibition of human MPO-HOCl production, pIC50: 2.5 nM purified human MPO, 100 uM H2O2, pH 6.5, 15 min preincubation, 10 min at room temperature, pIC50 = -log IC50
T1 construct: purchased Planta
Description: Here we describe an in vitro MPO assay that was developed to assess inhibition of enzyme activity. Essentially the MPO assay was designed to measure the production of hypochlorus acid (HOCl), which is the key physiological product generated by the enzyme in vivo. An outline of the assay reactions is given: [drawing 5]
Compounds were preincubated with the MPO enzyme in buffer for about 15 min prior to start of reaction with H2O2. The whole reaction was carried out at room temperatutre for 10 min in a 96-well plate. […] All test concentrations were done in duplicated with at least two separate determinations n=2, unless otherwise stated. The inhibitory concentration for a compound is presentated as pIC50, which is −log IC50.

[1] = tested on: stimulated human neutrophils; experiment: functional human neutrophil assay, HOCl production by PMA-stimulated neutrophils; format: cell-based; conditions: 2x10^6 neutrophils, PMA 1 μg/ml, 15 min preincubation, 30 min at 37C, read-out: Inhibition of HOCl production by stimulated human neutrophils, pIC50 (converted)
Description: Here we describe the use of a functional human neutrophil assay to determine the effects of MPO inhibitors on the production of HOCl. This assay detects the production of HOCl from stimulated (e.g. PMA, LPS, fMLP, zymozan) human neutrophils. Human neutrophils were purified from fresh heparinised blood by density centrifugation on Polymorphprep (Nycomed). These neutrophils were used immediately after purification. A standard reaction mixture contained the following: 2×10^6 neutrophils, 140 mM NaCl, 5 mM taurine, 0.5 mM MgCl2, 1 mM CaCl2 and 1 mg/ml glucose. Test compounds were made up in DMSO and added to cells, with a final DMSO concentration of 0.5%. Test compounds were given 15 min preincubation at 37C with neutrophils prior to the addition of the PMA stimulant (1 μg/ml). The assay was then allowed to progress for another 30 min at 37C. At the end of the incubation, supernatants were collected by centrifugation and assayed for HOCl by using the stop/development reagent as above. All compounds were tested in duplicate with at least two separate determinations n=2 from two different donors.

[2] = read-out: Inhibition of human MPO-HOCl production, pIC50 (converted)

T1 sequence (P05164 279-745 limits assumed): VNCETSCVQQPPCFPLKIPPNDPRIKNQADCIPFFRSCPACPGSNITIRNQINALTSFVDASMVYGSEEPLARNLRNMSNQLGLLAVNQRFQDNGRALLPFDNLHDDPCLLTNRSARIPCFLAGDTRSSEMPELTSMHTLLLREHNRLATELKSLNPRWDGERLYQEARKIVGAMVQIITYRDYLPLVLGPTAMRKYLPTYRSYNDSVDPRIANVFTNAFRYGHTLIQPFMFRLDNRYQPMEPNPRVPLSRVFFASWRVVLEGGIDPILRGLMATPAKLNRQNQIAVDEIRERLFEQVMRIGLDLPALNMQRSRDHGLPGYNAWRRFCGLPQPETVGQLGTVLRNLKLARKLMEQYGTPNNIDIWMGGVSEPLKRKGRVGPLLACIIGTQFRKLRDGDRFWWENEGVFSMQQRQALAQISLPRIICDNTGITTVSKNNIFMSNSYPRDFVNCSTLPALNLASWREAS
T1 sequence (P05164 165-273 limits assumed): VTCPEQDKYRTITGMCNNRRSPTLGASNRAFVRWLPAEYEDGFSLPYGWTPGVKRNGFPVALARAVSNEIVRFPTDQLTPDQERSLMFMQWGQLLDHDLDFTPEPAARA

Row | Compound | IC50 (human MPO; [2]) [nM] | also measured
1 | Nc1ccc(S(=O)(=O)c2ccc(N)cc2)cc1 [Dapsone] | 631 | relative potency as inhibitor of HOCl production by human MPO (in words) (human MPO; human MPO): most potent inhibitor of the sulfones/sulfonamides tested; IC50 [1]: 20000 nM
2 | Nc1ccc(S(=O)(=O)Nc2ccccn2)cc1 [Sulfapyridine] | 2000 | IC50 [1]: 31600 nM
3 | COc1cc(C=O)ccc1O [Vanillin] | 7940 | –
4 | Nc1ccc(S(=O)(=O)Nc2nccs2)cc1 [N-1(2 thiazolyl)-sulfanilamide] | – | Inhibition of human MPO-HOCl production, pIC50 (human MPO): 6.0
5 | CC(=O)Nc1ccc(S(=O)(=O)Nc2ccc([N+](=O)[O-])cc2)cc1 [Sulfanitran] | 7940 | –
6 | Nc1ccc(S(=O)(=O)Nc2ncccn2)cc1 [Sulfadiazine] | 6310 | –
7 | COc1ccc2[nH]cc(CCN)c2c1 [5-Methoxytryptamine] | – | IC50 (human MPO): 631 nM
8 | COc1ccc2[nH]cc(CCNC(C)=O)c2c1 [Melatonin] | 794 | –
9 | Cc1noc(NS(=O)(=O)c2ccc(N)cc2)c1C [Sulfisoxazole] | 6310 | –
10 | COc1ccc2[nH]ccc2c1 [5-Methoxyindole] | 2510 | –
11 | COc1ccc2cc[nH]c2c1 [6-Methoxyindole] | 1580 | –
12 | Nc1ccc(S(N)(=O)=O)cc1 [Sulfanilamide] | 1000 | IC50 [1]: 15800 nM
13 | [H]/N=C(/N)NS(=O)(=O)c1ccc(N)cc1 [Sulfaguanidine] | 3160 | –
14 | c1ccc2[nH]ccc2c1 [Indole] | – | IC50 (human MPO): 2000 nM
15 | Cc1c[nH]c2ccccc12 [3-Methylindole] | 1260 | –
16 | CN1C(C(=O)Nc2ccccn2)=C(O)c2ccccc2S1(=O)=O [Piroxicam] | 2510 | –
17 | CCOC(=O)c1cccc(N)c1 [3-Aminobenzoic acid ethylester] | 631 | –
18 | COc1cc(NC(C)CCCN)c2ncccc2c1 (stereo not drawn) [Primaquine] | – | IC50 [1]: 12600 nM
19 | COc1ccc2[nH]cc(CCO)c2c1 [5-Methoxytryptophol] | – | Inhibition of human MPO-HOCl production, pIC50 (human MPO): 6.3
20 | N=C(N)c1ccc(N)cc1 [p-Aminobenzamidine] | 2510 | –
